Data published in PMC11233931, “Remodeling tumor‐associated macrophage for anti‐cancer effects by rational design of irreversible inhibition of mitogen‐activated protein kinase‐activated protein kinase 2” (MedComm, 2024).

Key:
Test in all cases: Eurofins kinase selectivity profile against 380 other human recombinant kinases (Table S2)
Type in all cases: biochemical
[1] = target: T1, 380 human recombinant protein kinases (Homo sapiens, UniProt P07948); conditions: Lyn(h), read-out: Inhibition rate
T1 construct: purchased Eurofins (Celle Lévescault)
T1 sequence (P07948 whole entry): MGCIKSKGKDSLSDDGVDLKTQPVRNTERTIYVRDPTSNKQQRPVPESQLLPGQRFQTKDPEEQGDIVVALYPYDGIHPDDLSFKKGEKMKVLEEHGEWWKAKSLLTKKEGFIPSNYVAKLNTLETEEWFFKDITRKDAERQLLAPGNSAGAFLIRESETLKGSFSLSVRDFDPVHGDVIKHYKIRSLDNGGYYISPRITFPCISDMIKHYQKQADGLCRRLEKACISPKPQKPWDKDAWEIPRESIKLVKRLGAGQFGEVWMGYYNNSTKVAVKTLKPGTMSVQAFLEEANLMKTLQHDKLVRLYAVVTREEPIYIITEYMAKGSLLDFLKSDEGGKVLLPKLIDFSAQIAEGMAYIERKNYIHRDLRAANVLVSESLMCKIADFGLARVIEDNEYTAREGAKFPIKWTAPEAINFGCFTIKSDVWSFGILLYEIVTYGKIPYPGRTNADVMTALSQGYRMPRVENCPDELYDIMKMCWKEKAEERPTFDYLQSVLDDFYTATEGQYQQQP
How it was run: (§1)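 Selectivity panel of 380 human recombinant protein kinases, screened by Eurofins at a range of concentrations.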

[2] = target: T2, 380 human recombinant protein kinases (Homo sapiens, UniProt Q9UIK4); conditions: DAPK2(h), read-out: Inhibition rate
T2 construct: purchased Eurofins (Celle Lévescault)
How it was run: as §1

[3] = target: T3, 380 human recombinant protein kinases (Homo sapiens, UniProt O94804); conditions: LOK(h), read-out: Inhibition rate
T3 construct: purchased Eurofins (Celle Lévescault)
T3 sequence (O94804 whole entry): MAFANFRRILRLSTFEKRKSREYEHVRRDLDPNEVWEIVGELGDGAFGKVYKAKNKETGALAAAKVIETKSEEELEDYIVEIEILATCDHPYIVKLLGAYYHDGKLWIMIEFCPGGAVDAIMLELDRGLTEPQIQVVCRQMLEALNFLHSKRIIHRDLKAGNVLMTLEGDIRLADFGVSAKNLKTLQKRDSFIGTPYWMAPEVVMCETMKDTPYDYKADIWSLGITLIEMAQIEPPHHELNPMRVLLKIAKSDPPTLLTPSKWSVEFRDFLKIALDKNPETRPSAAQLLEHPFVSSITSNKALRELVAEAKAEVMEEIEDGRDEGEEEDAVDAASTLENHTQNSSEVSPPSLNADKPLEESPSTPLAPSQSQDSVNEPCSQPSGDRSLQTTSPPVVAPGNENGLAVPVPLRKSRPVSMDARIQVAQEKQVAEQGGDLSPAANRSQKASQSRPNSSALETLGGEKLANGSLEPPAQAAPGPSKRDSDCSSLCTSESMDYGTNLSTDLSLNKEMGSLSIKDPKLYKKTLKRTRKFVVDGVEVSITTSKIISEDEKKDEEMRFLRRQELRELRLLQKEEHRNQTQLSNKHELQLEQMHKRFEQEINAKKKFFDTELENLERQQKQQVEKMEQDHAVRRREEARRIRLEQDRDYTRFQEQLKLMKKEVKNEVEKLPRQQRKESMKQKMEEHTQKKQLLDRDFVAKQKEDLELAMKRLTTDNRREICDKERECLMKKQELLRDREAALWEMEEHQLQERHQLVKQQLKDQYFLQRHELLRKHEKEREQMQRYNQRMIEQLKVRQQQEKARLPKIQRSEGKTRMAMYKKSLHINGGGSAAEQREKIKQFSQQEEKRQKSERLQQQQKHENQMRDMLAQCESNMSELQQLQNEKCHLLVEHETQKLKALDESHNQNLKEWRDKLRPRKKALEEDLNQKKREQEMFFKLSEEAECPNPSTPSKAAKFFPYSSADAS
How it was run: as §1

[4] = target: T4, 380 human recombinant protein kinases (Homo sapiens, UniProt Q9H2K8); conditions: TAO3(h), read-out: Inhibition rate (%)
T4 construct: purchased Eurofins (Celle Lévescault)
T4 sequence (Q9H2K8 1-898): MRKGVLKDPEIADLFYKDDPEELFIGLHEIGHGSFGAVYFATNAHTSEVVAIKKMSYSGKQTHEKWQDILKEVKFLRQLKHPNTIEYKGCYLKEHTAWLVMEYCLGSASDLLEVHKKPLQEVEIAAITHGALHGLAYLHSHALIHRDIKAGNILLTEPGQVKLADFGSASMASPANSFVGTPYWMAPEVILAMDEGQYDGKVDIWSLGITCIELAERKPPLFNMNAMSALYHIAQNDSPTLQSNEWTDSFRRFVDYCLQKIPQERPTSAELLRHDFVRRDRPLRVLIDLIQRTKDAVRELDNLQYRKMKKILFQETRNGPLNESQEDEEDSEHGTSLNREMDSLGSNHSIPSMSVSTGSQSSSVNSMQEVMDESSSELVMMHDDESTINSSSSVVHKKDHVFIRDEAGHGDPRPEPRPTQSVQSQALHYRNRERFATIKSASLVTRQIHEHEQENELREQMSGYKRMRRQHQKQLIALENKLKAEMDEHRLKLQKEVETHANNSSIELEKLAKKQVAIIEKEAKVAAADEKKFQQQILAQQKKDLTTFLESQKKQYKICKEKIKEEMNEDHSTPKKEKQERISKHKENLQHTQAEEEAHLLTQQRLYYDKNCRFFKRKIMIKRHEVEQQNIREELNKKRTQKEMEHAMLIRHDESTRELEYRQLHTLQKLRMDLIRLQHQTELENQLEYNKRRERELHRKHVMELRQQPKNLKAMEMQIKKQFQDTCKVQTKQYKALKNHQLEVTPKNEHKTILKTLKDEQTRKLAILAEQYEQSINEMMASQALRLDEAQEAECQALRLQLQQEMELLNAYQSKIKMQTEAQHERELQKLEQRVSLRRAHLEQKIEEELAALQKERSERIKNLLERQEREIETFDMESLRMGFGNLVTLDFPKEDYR
How it was run: as §1

[5] = target: T5, 380 human recombinant protein kinases (Homo sapiens, UniProt Q13131); conditions: AMPKα1(h), read-out: Inhibition rate
T5 construct: purchased Eurofins (Celle Lévescault)
T5 sequence (Q13131 whole entry): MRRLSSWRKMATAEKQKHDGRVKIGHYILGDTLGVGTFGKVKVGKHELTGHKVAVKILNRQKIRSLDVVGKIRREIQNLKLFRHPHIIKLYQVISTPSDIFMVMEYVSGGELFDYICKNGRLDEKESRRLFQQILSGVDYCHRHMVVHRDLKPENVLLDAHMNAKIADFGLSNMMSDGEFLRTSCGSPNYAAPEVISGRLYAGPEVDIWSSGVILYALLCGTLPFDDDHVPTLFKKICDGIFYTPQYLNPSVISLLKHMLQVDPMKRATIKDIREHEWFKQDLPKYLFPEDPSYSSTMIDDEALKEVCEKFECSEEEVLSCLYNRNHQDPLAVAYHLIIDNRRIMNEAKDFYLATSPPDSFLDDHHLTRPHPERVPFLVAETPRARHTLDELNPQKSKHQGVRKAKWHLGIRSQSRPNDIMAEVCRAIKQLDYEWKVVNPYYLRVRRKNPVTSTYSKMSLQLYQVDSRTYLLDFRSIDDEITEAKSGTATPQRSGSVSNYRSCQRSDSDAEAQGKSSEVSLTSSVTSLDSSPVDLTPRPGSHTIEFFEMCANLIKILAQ
How it was run: as §1

[6] = target: T6, 380 human recombinant protein kinases (Homo sapiens, UniProt Q8N568); conditions: DCAMKL2(h), read-out: Inhibition rate
T6 construct: purchased Eurofins (Celle Lévescault)
T6 sequence (Q8N568 whole entry): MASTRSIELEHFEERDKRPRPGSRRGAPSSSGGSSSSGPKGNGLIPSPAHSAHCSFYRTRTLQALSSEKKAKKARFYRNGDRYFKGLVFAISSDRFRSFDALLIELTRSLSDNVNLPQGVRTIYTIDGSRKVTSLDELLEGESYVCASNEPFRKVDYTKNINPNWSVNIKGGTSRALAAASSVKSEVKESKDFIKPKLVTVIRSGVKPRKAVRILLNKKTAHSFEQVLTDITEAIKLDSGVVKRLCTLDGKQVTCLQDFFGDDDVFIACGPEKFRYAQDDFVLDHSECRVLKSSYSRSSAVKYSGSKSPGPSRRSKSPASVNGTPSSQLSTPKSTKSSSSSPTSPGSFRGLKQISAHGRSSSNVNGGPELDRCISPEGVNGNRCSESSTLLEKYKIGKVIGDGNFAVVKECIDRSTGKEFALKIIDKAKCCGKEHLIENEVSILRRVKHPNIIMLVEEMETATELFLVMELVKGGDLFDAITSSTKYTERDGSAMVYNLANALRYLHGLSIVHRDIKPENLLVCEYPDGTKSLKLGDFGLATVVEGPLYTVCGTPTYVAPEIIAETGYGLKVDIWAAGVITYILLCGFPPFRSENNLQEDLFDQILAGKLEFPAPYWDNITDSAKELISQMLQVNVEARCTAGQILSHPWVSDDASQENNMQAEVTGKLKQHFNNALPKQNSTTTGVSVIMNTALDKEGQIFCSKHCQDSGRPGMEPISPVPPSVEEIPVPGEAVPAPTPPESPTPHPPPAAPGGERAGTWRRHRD
How it was run: as §1

[7] = target: T7, 380 human recombinant protein kinases (Homo sapiens, UniProt P51955); conditions: NEK2(h), read-out: Inhibition rate
T7 construct: purchased Eurofins (Celle Lévescault)
T7 sequence (P51955 1-445): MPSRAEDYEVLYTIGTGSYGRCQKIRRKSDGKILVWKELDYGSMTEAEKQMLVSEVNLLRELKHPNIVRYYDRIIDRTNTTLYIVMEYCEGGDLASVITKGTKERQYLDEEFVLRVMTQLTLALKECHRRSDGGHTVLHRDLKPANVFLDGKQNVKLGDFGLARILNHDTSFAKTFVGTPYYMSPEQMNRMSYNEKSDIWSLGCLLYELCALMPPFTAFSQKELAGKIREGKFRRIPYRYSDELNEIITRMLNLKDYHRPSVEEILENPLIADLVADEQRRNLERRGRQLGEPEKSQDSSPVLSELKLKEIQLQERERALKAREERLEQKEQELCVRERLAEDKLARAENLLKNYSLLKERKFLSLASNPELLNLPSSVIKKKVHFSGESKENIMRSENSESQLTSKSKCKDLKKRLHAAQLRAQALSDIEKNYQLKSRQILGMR
How it was run: as §1

[8] = target: T8, 380 human recombinant protein kinases (Homo sapiens, UniProt Q96RG2); conditions: PASK(h), read-out: Inhibition rate
T8 construct: purchased Eurofins (Celle Lévescault)
T8 sequence (Q96RG2 whole entry): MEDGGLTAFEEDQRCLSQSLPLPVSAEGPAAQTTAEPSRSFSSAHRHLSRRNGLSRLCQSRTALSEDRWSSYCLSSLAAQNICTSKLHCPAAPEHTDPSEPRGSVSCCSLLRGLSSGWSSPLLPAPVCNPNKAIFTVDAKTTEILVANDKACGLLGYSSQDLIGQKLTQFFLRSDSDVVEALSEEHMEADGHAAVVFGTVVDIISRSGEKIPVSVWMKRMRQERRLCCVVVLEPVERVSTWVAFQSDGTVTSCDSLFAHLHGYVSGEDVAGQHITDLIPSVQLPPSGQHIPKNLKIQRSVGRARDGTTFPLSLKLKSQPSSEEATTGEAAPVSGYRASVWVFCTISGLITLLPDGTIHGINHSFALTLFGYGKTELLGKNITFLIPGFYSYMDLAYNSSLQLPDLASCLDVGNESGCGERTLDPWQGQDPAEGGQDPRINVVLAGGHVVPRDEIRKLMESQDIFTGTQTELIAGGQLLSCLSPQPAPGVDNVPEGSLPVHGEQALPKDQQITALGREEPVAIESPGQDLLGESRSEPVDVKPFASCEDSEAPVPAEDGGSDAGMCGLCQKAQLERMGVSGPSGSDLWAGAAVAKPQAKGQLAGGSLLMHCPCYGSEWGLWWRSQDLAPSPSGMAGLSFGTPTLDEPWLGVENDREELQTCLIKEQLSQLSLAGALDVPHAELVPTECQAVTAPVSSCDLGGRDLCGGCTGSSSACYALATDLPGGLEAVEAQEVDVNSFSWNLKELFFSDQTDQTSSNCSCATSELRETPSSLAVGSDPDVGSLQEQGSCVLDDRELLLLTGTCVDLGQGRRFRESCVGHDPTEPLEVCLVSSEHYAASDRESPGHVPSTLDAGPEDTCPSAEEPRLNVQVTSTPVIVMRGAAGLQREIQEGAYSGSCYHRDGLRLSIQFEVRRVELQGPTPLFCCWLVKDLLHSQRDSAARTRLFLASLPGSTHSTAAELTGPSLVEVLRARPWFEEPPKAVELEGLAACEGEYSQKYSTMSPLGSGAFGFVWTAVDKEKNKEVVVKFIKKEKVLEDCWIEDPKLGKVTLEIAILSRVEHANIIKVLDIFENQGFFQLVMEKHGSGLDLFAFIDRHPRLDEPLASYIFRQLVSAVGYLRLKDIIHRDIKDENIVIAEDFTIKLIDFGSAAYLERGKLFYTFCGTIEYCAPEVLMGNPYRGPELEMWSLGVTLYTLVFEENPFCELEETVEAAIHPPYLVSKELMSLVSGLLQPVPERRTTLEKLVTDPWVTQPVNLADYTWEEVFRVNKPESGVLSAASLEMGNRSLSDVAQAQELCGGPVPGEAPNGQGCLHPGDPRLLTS
How it was run: as §1

[9] = target: T9, 380 human recombinant protein kinases (Homo sapiens, UniProt Q9HC98); conditions: NEK6(h), read-out: Inhibition rate
T9 construct: purchased Eurofins (Celle Lévescault)
How it was run: as §1

[10] = target: T10, 380 human recombinant protein kinases (Homo sapiens, UniProt P05771); conditions: PKCβI(h), read-out: Inhibition rate
T10 construct: purchased Eurofins (Celle Lévescault)
T10 sequence (P05771 whole entry): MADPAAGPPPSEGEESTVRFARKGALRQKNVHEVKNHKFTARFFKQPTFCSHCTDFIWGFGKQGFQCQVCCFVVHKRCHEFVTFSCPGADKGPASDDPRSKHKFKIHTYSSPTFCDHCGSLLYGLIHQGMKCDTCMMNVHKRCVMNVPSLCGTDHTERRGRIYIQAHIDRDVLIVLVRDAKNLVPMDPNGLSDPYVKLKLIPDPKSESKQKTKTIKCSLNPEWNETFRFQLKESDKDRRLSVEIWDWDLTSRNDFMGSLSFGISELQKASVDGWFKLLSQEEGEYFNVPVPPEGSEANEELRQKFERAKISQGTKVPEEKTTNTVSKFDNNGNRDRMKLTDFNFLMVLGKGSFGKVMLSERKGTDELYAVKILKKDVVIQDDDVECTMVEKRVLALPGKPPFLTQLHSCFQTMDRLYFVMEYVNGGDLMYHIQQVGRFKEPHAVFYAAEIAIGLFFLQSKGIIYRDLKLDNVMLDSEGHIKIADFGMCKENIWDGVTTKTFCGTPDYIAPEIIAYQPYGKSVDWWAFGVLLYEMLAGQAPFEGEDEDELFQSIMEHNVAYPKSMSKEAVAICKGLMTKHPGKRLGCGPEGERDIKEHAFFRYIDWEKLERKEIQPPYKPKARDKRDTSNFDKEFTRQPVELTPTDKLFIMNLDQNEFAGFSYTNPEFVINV
How it was run: as §1

Structure (SMILES): C=CC(=O)Nc1cc(-c2cc(-c3cc4c([nH]3)CCNC4=O)ccn2)ccc1OC(F)(F)F [compound 11]
- inhibition at 0.01 µM ([1]; 10 nM): -1%
- inhibition at 0.1 µM ([1]; 100 nM): -11%
- inhibition at 1 µM ([1]; 1000 nM): -11%
- inhibition at 0.01 µM ([2]; 10 nM): 8%
- inhibition at 0.1 µM ([2]; 100 nM): 3%
- inhibition at 1 µM ([2]; 1000 nM): 13%
- inhibition at 0.01 µM ([3]; 10 nM): -2%
- inhibition at 0.1 µM ([3]; 100 nM): 6%
- inhibition at 1 µM ([3]; 1000 nM): 54%
- inhibition at 0.01 µM ([4]; 10 nM): -4%
- inhibition at 0.1 µM ([4]; 100 nM): 0%
- inhibition at 1 µM ([4]; 1000 nM): 7%
- inhibition at 0.01 µM ([5]; 10 nM): 6%
- inhibition at 0.1 µM ([5]; 100 nM): 20%
- inhibition at 1 µM ([5]; 1000 nM): 65%
- inhibition at 0.01 µM ([6]; 10 nM): 4%
- inhibition at 0.1 µM ([6]; 100 nM): 4%
- inhibition at 1 µM ([6]; 1000 nM): 4%
- inhibition at 0.01 µM ([7]; 10 nM): -3%
- inhibition at 0.1 µM ([7]; 100 nM): 0%
- inhibition at 1 µM ([7]; 1000 nM): 11%
- inhibition at 0.01 µM ([8]; 10 nM): 13%
- inhibition at 0.1 µM ([8]; 100 nM): 4%
- inhibition at 1 µM ([8]; 1000 nM): 12%
- inhibition at 0.01 µM ([9]; 10 nM): -4%
- inhibition at 0.1 µM ([9]; 100 nM): -5%
- inhibition at 1 µM ([9]; 1000 nM): -3%
- inhibition at 0.01 µM ([10]; 10 nM): 3%
- inhibition at 0.1 µM ([10]; 100 nM): 1%
- inhibition at 1 µM ([10]; 1000 nM): -13%
